What was measured:
CDK9/CycT = CDK9/CycT (Homo sapiens, UniProt P50750); assay: CDK9/CycT inhibition (Tables A1, A2); assay type: biochemical
CDK7/CycH = CDK7/CycH (Homo sapiens, UniProt P50613); assay: CDK7/CycH inhibition (Tables A1, A2); assay type: biochemical
CDK2/CycA = CDK2/CycA (Homo sapiens, UniProt P24941); assay: CDK2/CycA inhibition (Tables A1, A2); assay type: biochemical
Jurkat cells = assay: Jurkat proliferation assay (CellTiter-Glo); assay type: cell-based; conditions: for IC50: Homo sapiens, Jurkat, read-out: Jurkat IC50
Description: (§1) Jurkat cells were seeded at a density of 25,000 cells/well in 96-well plates. Cells were then treated with the indicated compounds in a 10-pt dose escalation format from 1 nM to 10 μM or DMSO control for 72 hours. After 72 hours, the cells were assayed using CellTiter-Glo Luminescent Cell Viability Assay (Promega) to determine cell viability by measuring the amount of ATP present in each sample cell population, which is an indicator of cell metabolic activity. […] All data points were performed in biological triplicate. Error bars are +/−SD.
as §1, with “hrs.” for “hours.”, “hrs,” for “hours, the”

Sequence of CDK9/CycT (P50750 whole entry): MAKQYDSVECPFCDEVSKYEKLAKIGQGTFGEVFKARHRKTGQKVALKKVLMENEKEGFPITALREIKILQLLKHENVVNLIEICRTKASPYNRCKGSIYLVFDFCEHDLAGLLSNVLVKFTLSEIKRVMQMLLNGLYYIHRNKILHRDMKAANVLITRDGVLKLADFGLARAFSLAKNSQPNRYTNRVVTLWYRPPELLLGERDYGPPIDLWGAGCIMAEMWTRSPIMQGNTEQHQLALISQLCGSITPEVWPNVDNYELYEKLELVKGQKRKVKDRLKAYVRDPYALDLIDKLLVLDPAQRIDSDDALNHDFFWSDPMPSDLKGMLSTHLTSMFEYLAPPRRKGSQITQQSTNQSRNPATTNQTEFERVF
Sequence of CDK9/CycT (O60563 whole entry partner): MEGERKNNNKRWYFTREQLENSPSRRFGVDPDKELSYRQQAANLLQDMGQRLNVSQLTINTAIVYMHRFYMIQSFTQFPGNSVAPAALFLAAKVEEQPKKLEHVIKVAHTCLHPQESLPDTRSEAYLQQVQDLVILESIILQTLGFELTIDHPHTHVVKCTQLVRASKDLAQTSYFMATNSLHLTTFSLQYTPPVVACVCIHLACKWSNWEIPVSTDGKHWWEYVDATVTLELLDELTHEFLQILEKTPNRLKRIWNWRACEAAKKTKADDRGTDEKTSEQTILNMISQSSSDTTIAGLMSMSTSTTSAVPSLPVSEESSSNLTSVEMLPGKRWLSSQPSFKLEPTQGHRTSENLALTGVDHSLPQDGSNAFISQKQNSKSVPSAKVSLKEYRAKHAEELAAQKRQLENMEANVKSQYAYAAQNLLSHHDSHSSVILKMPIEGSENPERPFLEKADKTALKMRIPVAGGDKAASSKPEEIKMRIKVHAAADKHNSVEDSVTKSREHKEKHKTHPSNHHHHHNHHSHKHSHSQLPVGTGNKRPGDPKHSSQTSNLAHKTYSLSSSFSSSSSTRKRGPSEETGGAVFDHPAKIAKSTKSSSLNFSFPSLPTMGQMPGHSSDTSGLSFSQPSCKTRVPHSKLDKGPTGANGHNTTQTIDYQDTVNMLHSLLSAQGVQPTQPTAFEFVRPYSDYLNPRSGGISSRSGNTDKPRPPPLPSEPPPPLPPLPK
Sequence of CDK7/CycH (P50613 whole entry): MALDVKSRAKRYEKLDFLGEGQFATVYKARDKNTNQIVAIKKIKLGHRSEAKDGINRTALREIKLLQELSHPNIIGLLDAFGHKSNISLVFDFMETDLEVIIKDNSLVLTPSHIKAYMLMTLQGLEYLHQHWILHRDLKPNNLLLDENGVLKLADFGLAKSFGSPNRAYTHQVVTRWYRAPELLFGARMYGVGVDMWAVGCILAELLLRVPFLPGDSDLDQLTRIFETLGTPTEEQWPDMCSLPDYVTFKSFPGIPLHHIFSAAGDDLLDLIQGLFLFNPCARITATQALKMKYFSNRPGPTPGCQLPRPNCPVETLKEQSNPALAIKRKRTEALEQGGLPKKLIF
Sequence of CDK7/CycH (P51946 whole entry partner): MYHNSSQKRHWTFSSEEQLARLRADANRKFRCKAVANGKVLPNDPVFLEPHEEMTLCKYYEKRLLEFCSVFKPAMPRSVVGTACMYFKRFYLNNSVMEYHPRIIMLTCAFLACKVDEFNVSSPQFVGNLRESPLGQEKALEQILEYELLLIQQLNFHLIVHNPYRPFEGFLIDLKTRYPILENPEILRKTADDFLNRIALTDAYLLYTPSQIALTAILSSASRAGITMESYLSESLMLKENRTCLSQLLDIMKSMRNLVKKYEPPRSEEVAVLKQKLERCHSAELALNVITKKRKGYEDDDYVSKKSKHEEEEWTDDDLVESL

Row | IC50 (CDK9/CycT) | IC50 (CDK7/CycH) | IC50 (CDK2/CycA) | IC50 (Jurkat cells) | SMILES | Mode of inhibition of Jurkat T-ALL cell proliferation (Jurkat cells)
1 |  | 165 nM | 27.6 nM |  | C=CC(=O)Nc1cccc(CNc2cc(N3CCCC[C@H]3CCO)nc3c(CC)cnn23)c1 [MFH-1-49-1, (S)—N-(3-(((3-ethyl-5-(2-(2-hydroxyethyl)piperidin-1-yl)pyrazolo[1,5-a]pyrimidin-7-yl)amino)methyl)phenyl)acrylamide] | 
2 |  | 345 nM | 1530 nM |  | C=CC(=O)Nc1cccc(CNc2cc(N3CCCC[C@@H]3CCO)nc3c(CC)cnn23)c1 [MFH-1-56-1, (R)—N-(3-((3-ethyl-5-(2-(2-hydroxyethyl)piperidin-1-yl)pyrazolo[1,5-a]pyrimidin-7-ylamino)methyl)phenyl)acrylamide] | 
3 | 23.9 nM | 1210 nM | 932 nM |  | C=CC(=O)Nc1cccc(Nc2cc(N3CCCC[C@H]3CCO)nc3c(CC)cnn23)c1 [MFH-1-141-1, (S)—N-(3-(3-ethyl-5-(2-(2-hydroxyethyl)piperidin-1-yl)pyrazolo[1,5-a]pyrimidin-7-ylamino)phenyl)acrylamide] | 
4 | 859 nM | 2510 nM | > 10000 nM |  | C=CC(=O)Nc1cccc(Nc2cc(N3CCCC[C@@H]3CCO)nc3c(CC)cnn23)c1 [MFH-1-143-1, (R)—N-(3-(3-ethyl-5-(2-(2-hydroxyethyl)piperidin-1-yl)pyrazolo[1,5-a]pyrimidin-7-ylamino)phenyl)acrylamide] | 
5 | 135 nM | 7250 nM | 3880 nM |  | C=CC(=O)N[C@H]1CC[C@@H](Nc2cc(N3CCCC[C@H]3CCO)nc3c(CC)cnn23)CC1 [MFH-1-169-1, N-((1R,4s)-4-((3-ethyl-5-((S)-2-(2-hydroxyethyl)piperidin-1-yl)pyrazolo[1,5-a]pyrimidin-7-yl)amino)cyclohexyl)acrylamide] | 
6 | 48.2 nM | 442 nM | 1080 nM |  | C=CC(=O)N[C@H]1CC[C@H](Nc2cc(N3CCCC[C@H]3CCO)nc3c(CC)cnn23)CC1 [MFH-1-175-1, N-((1S,4r)-4-((3-ethyl-5-((S)-2-(2-hydroxyethyl)piperidin-1-yl)pyrazolo[1,5-a]pyrimidin-7-yl)amino)cyclohexyl)acrylamide] | 
7 | 23.5 nM | 279 nM | 171 nM |  | C=CC(=O)Nc1ccc(Nc2cc(N3CCCC[C@H]3CCO)nc3c(CC)cnn23)cc1 [MFH-1-187-1, (S)—N-(4-((3-ethyl-5-(2-(2-hydroxyethyl)piperidin-1-yl)pyrazolo[1,5-a]pyrimidin-7-yl)amino)phenyl)acrylamide] | 
8 | 61.6 nM | 1100 nM | 53.6 nM |  | C=CC(=O)Nc1cccc(Nc2nc(N3CCCC[C@H]3CCO)nc3c(CC)cnn23)c1 [MFH-2-53-1, (S)—N-(3-(8-ethyl-2-(2-(2-hydroxyethyl)piperidin-1-yl)pyrazolo[1,5-a][1,3,5]triazin-4-ylamino)phenyl)acrylamide] | 
9 | 465 nM | 356 nM | 4190 nM |  | C=CC(=O)Nc1cccc(Nc2cc(N3CCCC(N)C3)nc3c(CC)cnn23)c1 (stereo not drawn) [MFH-3-140-1, N-(3-(5-(3-aminopiperidin-1-yl)-3-ethylpyrazolo[1,5-a]pyrimidin-7-ylamino)phenyl)acrylamide] | 
10 | 41.8 nM | 461 nM | 15 nM | 19.2 nM | C=CC(=O)Nc1cccc(Nc2nc(N3CCCCC3CCO)nc3c(CC)cnn23)c1 (stereo not drawn) [SB1-E-18, N-(3-(8-Ethyl-2-(2-(2-hydroxyethyl)piperidin-1-yl)pyrazolo[1,5-a][1,3,5]triazin-4-ylamino)phenyl)acrylamide] | irreversiably inhibit
11 | 123 nM | 383 nM | 295 nM |  | C=CC(=O)Nc1ccc(C(=O)Nc2cccc(Nc3nc(N4CCCCC4CCO)nc4c(CC)cnn34)c2)cc1 (stereo not drawn) [SB1-E-19, 4-Acrylamido-N-(3-(8-ethyl-2-(2-(2-hydroxyethyl)piperidin-1-yl)pyrazolo[1,5-a][1,3,5]triazin-4-ylamino)phenyl)benzamide] | 
12 | 140 nM | 774 nM | 1260 nM |  | C=CC(=O)Nc1ccc(C(=O)Nc2cccc(Nc3cc(N4CCCCC4CCO)nc4c(CC)cnn34)c2)cc1 (stereo not drawn) [SB1-E-24, 4-Acrylamido-N-(3-(3-ethyl-5-(2-(2-hydroxyethyl)piperidin-1-yl)pyrazolo[1,5-a]pyrimidin-7-ylamino)phenyl)benzamide] | 

Continued, compound first:

Row | SMILES | IC50 (CDK9/CycT) | IC50 (CDK7/CycH) | IC50 (CDK2/CycA) | IC50 (Jurkat cells) | Mode of inhibition of Jurkat T-ALL cell proliferation (Jurkat cells)
13 | C=CC(=O)Nc1cccc(Nc2nc(N[C@H]3CC[C@@H](N(C)C)CC3)nc3c2ncn3C(C)C)c1 [E-1(SB1-E-14), N-(3-(2-((1s,4s)-4-(Dimethylamino)cyclohexylamino)-9-isopropyl-9H-purin-6-ylamino)phenyl)acrylamide] | 1360 nM | 254 nM | 735 nM |  | 
14 | C=CC(=O)NC1CCCC(Nc2cc(N3CCCC[C@H]3CCO)nc3c(CC)cnn23)C1 (stereo partly drawn) [MFH-1-167-1, N-(3-(3-ethyl-5-((S)-2-(2-hydroxyethyl)piperidin-1-yl)pyrazolo[1,5-a]pyrimidin-7-ylamino)cyclohexyl)acrylamide] | 24.7 nM | 739 nM | 328 nM |  | 
15 | C=CC(=O)Nc1cccc(CNc2nc(N[C@H]3CC[C@H](N(C)C)CC3)nc3c(CC)cnn23)c1 [MFH-2-67-1, N-(3-(((2-(((1r,4r)-4-(dimethylamino)cyclohexyl)amino)-8-ethylpyrazolo[1,5-a][1,3,5]triazin-4-yl)amino)methyl)phenyl)acrylamide] | 103 nM | 23.7 nM | 1020 nM |  | 
16 | C=CC(=O)NC1CCCC(Nc2nc(N[C@H]3CC[C@H](N(C)C)CC3)nc3c(CC)cnn23)C1 (stereo partly drawn) [MFH-2-78-1, N-(3-((2-(((1r,4r)-4-(dimethylamino)cyclohexyl)amino)-8-ethylpyrazolo[1,5-a][1,3,5]triazin-4-yl)amino)cyclohexyl)acrylamide] | 68.7 nM | 842 nM | > 1000 nM |  | 
17 | C=CC(=O)NC1CCCC(Nc2nc(N[C@H]3CC[C@H](N(C)C)CC3)nc3c2ncn3C(C)C)C1 (stereo partly drawn) [SB1-E-15, N-(3-(2-((1r,4r)-4-(Dimethylamino)cyclohexylamino)-9-isopropyl-9H-purin-6-ylamino)cyclohexyl)acrylamide] | 58.9 nM | 763 nM | 1480 nM |  | 
18 | C=CC(=O)NCc1cccc(Nc2nc(N[C@H]3CC[C@H](N(C)C)CC3)nc3c2ncn3C(C)C)c1 [SB1-E-16, N-(3-(2-((1r,4r)-4-(Dimethylamino)cyclohexylamino)-9-isopropyl-9H-purin-6-ylamino)benzyl)acrylamide] | 116 nM | 255 nM | 30.3 nM |  | 
19 | C=CC(=O)Nc1ccc(C(=O)Nc2cccc(Nc3cc(N[C@H]4CC[C@H](N(C)C)CC4)nc4c(CC)cnn34)c2)cc1 [SB1-E-22, 4-Acrylamido-N-(3-(5-((1r,4r)-4-(dimethylamino)cyclohexylamino)-3-ethylpyrazolo[1,5-a]pyrimidin-7-ylamino)phenyl)benzamide] | 88.9 nM | 246 nM | 28300 nM |  | 
20 | C=CC(=O)Nc1ccc(C(=O)Nc2cccc(Nc3cc(N[C@H]4CC[C@H](N(C)C)CC4)nc4c(C(C)C)cnn34)c2)cc1 [SB1-E-25, 4-Acrylamido-N-(3-(5-((1r,4r)-4-(dimethylamino)cyclohexylamino)-3-isopropylpyrazolo[1,5-a]pyrimidin-7-ylamino)phenyl)benzamide] | 387 nM | 410 nM | 33400 nM |  | 
21 | CC(C)n1cnc2c(Nc3cccc(NC(=O)c4ccc(NC(=O)/C=C/CN(C)C)cc4)c3)nc(N[C@H]3CC[C@H](N(C)C)CC3)nc21 [THZ-3-49-1, 4-((E)-4-(Dimethylamino)but-2-enamido)-N-(3-((2-(((1r,4r)-4-(dimethylamino)cyclohexyl)amino)-9-isopropyl-9H-purin-6-yl)amino)phenyl)benzamide] | 445 nM | 9.43 nM |  | 4030 nM | 
22 | CC(C)n1cnc2c(Nc3cccc(NC(=O)c4ccc(NC(=O)/C=C/CN(C)C)cc4)c3)nc(N3CCCC(N)C3)nc21 (stereo not drawn) [THZ-4-119-1, (E)-N-(3-((2-(3-Aminopiperidin-1-yl)-9-isopropyl-9H-purin-6-yl)amino)phenyl)-4-(4-(dimethylamino)but-2-enamido)benzamide] | 519 nM | 11.5 nM |  | 1960 nM | 
23 | C=CC(=O)Nc1ccc(C(=O)N2CCCC(Nc3cc(N4CCCC(N)C4)nc4c(CC)cnn34)C2)cc1 (stereo not drawn) [THZ-4-141-1] | 3570 nM | 3600 nM | > 1000 nM |  | 
24 | C=CC(=O)Nc1ccc(C(=O)N2CCCC(Nc3cc(NC4CCC(N(C)C)CC4)nc4c(CC)cnn34)C2)cc1 (stereo not drawn) [THZ-4-148-1] | 1710 nM | > 10000 nM | 7050 nM |  | 
25 | C=CC(=O)Nc1ccc(C(=O)N2CCCC(Nc3nc(N4CCCCC4CCO)nc4c3ncn4C(C)C)C2)cc1 (stereo not drawn) [THZ-4-149-1] | 2290 nM | 4430 nM | > 1000 nM |  | 
26 | CC(C)n1cnc2c(Nc3cccc(NC(=O)/C=C/CN(C)C)c3)nc(N[C@H]3CC[C@H](N(C)C)CC3)nc21 [THZ-5-18-1] | 1530 nM | 121 nM |  | 1340 nM | 
27 | C=CC(=O)Nc1ccc(C(=O)Nc2cccc(Nc3nc(N[C@H]4CC[C@H](N(C)C)CC4)nc4c3ncn4C(C)C)c2)cc1 [THZ-5-38-1, 4-Acrylamido-N-(3-((2-((trans-4-(dimethylamino)cyclohexyl)amino)-9-isopropyl-9H-purin-6-yl)amino)phenyl)benzamide] | 220 nM | 25.9 nM | 563 nM |  | 
